According to patent publication US11399455B1, “Cast pellets for planting seeds” (Ball Horticultural Company, priority 2010, dated 2022):

Columns and labels:
[1] = test system: Impatiens Dazzler White seeds; assay: Growth regulator in casting: germination and plant height; assay type: in vivo; conditions: count date 11; for Germ (%): 25° C.
Protocol: (§1) A single seed was placed in every mold cavity of a mold containing 108 cavities of dimensions 0.25 inch (6.4 mm) in length by 0.125 inch (3.2 mm) in width and 0.125 inch (3.2 mm) in depth. The following growth regulator concentrations were applied to seed via the casting method: 2 ppm, 4 ppm, and 8 ppm. PEG 4000 (100 g) was weighed out and put into a beaker. This was done four times. Each beaker with the PEG 4000 was heated to 111° F. until the PEG 4000 completely melted. The growth regulator concentrations were made by dissolving a given weight of the plant grown retardant ancymidol (α-cyclopropyl-α-(p-methoxyphenyl)-5-pyrimidinemethanol; A-REST) powder into 1 ml of acetone, as follows: 6.4 mg A-REST into 1 ml of acetone for 2 ppm; 12.8 mg A-REST into 1 ml of acetone for 4 ppm; and 25.6 mg A-REST into 1 ml acetone for 8 ppm. Once dissolved, the specified concentrations of A-REST were added to the beakers with the melted PEG and mixed on the heated stir plate until well blended; 65 μl was pipetted into the cavities that contained the seeds. Once the entire mold was filled it was set aside to cool. […] The castings were then removed from the mold.
(§2) The 108 castings (seed plus PEG 4000) containing the A-REST concentrations, along with a cast only (no added A-REST) and a raw control, were sown in a plug tray to evaluate germination. Seeds were sown at 25° C. The plug trays were run through a watering tunnel and then put into a Stage 1 mist chamber. Upon radical emergence, the plugs were placed in a Stage 2 chamber. The amount of time in Stage 1 and Stage 2 was dependent on the crop.
(§3) Plant height was measured and recorded on the same day seed germination was recorded.

[2] = test system: Marigolds African Marvel Orange seeds; assay: as above; assay type: in vivo; conditions: count date 10; for Germ (%): 25° C.
Protocol: as §1, §2, §3

COc1ccc(C(O)(c2cncnc2)C2CC2)cc1 (stereo not drawn) [A-REST, α-cyclopropyl-α-(p-methoxyphenyl)-5-pyrimidinemethanol]
Germ (%) ([1]; 2 ppm in PEG 4000 casting): 96%
Ave. Height (mm) ([1]; 2 ppm in PEG 4000 casting): 13 mm
Germ (%) ([1]; 4 ppm in PEG 4000 casting): 94%
Ave. Height (mm) ([1]; 4 ppm in PEG 4000 casting): 11 mm
Germ (%) ([1]; 8 ppm in PEG 4000 casting): 99%
Ave. Height (mm) ([1]; 8 ppm in PEG 4000 casting): 9 mm
Germ (%) ([2]; 2 ppm in PEG 4000 casting): 98%
Ave. Height (mm) ([2]; 2 ppm in PEG 4000 casting): 12 mm
Germ (%) ([2]; 4 ppm in PEG 4000 casting): 87%
Ave. Height (mm) ([2]; 4 ppm in PEG 4000 casting): 12 mm
Germ (%) ([2]; 8 ppm in PEG 4000 casting): 82%
Ave. Height (mm) ([2]; 8 ppm in PEG 4000 casting): 12 mm
